Reference: PMC10174618, “Monoterpenoid aryl hydrocarbon receptor allosteric antagonists protect against ultraviolet skin damage in female mice” (Nature Communications, 2023)

Columns and labels:
Experiment in all cases: biochemical
Parameters in all cases: KINOMEscan scanMAX active site-directed competition binding assay, percent of control, 468 kinases
Conditions in all cases: competition binding, percent of control
CASK = CASK (Homo sapiens, UniProt O14936)
Outline: (§1)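 KINOMEscan active site-directed competition binding assay against 468 human kinases with 100 μM S-carvone. Binding expressed as % of control, with 35% of control as the inhibition threshold.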

RIPK5 = molecular target: T1, RIPK5 (Homo sapiens, UniProt Q6XUX3)
T1 construct: gene DSTYK
Outline: as §1

PLK2 = PLK2 (Homo sapiens, UniProt Q9NYY3)
PLK2, sequence (Q9NYY3 whole entry): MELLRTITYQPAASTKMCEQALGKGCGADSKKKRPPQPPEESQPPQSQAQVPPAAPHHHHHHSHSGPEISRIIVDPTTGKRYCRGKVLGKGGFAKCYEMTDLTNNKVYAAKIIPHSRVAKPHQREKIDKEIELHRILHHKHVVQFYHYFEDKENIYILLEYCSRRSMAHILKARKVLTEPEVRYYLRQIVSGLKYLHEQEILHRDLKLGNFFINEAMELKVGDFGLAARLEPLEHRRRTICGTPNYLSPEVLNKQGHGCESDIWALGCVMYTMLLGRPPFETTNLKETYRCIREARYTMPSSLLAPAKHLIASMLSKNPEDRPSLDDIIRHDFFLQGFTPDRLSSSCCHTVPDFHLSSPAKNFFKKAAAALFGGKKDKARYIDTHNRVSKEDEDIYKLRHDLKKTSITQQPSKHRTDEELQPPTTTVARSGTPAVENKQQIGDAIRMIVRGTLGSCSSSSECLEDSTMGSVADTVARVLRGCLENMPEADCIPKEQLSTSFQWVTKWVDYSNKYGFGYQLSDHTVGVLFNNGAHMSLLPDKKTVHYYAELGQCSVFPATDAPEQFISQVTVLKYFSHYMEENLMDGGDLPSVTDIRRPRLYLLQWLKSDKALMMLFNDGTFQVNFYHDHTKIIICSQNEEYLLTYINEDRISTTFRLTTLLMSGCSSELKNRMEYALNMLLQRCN
Outline: as §1

PIM3 = PIM3 (Homo sapiens, UniProt Q86V86)
Outline: as §1

CAMK1B = molecular target: T2, CAMK1B (Homo sapiens, UniProt Q6P2M8)
T2 construct: gene PNCK
Outline: as §1

AURKC = AURKC (Homo sapiens, UniProt Q9UQB9)
AURKC, sequence (Q9UQB9 whole entry): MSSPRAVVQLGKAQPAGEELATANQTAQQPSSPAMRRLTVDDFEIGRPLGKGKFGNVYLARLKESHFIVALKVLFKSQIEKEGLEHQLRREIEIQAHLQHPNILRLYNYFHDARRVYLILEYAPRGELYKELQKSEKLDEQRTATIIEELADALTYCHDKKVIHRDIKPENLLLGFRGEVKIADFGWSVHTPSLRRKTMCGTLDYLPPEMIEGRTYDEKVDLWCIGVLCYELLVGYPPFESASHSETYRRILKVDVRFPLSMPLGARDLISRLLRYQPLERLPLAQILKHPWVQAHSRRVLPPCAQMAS
Outline: as §1

CDK11 = molecular target: T3, CDK11 (Homo sapiens, UniProt Q9BWU1)
T3 construct: gene CDK19
T3 sequence (Q9BWU1 whole entry): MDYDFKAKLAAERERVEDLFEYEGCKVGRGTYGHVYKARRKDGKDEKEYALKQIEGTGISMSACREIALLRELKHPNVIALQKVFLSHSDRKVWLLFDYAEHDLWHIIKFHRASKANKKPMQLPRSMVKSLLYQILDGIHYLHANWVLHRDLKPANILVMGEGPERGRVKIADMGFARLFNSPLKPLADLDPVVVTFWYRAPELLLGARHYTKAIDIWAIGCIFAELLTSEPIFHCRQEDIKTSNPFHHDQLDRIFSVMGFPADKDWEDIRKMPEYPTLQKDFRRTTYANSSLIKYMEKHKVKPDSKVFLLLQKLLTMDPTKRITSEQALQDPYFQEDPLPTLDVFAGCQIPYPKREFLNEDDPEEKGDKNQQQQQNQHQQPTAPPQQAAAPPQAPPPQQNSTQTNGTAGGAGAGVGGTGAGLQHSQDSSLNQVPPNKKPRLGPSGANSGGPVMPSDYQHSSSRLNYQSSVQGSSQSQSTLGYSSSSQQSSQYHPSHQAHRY
Outline: as §1

FLT3(D835V) = FLT3(D835V) (Homo sapiens, UniProt P36888, D835V)
Outline: as §1

MYLK = MYLK (Homo sapiens, UniProt Q15746)
Outline: as §1

EIF2AK1 = EIF2AK1 (Homo sapiens, UniProt Q9BQI3)
Outline: as §1

EGFR = EGFR (Homo sapiens, UniProt P00533)
Outline: as §1

WEE2 = WEE2 (Homo sapiens, UniProt P0C1S8)
Outline: as §1

ULK1 = ULK1 (Homo sapiens, UniProt O75385)
Outline: as §1

[1] = molecular target: T4, ABL1(H396P)-nonphosphorylated (Homo sapiens, UniProt P00519, H396P)
T4 construct: nonphosphorylated
Outline: as §1

FGFR3(G697C) = FGFR3(G697C) (Homo sapiens, UniProt P22607, G697C)
Outline: as §1

HPK1 = molecular target: T5, HPK1 (Homo sapiens, UniProt Q92918)
T5 construct: gene MAP4K1
T5 sequence (Q92918 whole entry): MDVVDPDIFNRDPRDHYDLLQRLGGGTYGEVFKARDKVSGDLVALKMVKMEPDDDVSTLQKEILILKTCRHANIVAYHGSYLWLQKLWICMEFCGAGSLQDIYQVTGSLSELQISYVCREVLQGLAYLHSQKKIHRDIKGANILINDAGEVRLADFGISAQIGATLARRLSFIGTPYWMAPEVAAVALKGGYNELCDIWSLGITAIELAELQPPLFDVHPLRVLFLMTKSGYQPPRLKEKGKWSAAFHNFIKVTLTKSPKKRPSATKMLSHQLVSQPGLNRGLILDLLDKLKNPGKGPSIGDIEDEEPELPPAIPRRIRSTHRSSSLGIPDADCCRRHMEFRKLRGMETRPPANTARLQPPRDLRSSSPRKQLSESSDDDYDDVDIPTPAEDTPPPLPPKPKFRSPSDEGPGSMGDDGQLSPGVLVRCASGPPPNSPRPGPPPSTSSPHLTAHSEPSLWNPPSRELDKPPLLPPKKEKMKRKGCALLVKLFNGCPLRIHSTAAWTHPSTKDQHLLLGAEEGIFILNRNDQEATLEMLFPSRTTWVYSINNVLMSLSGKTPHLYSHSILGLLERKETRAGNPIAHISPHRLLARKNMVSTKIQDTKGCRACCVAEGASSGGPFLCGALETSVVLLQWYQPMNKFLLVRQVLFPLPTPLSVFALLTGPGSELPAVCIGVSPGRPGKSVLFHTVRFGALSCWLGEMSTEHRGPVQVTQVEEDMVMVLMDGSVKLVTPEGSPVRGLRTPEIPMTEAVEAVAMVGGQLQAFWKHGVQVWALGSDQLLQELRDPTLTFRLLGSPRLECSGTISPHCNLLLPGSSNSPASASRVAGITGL
Outline: as §1

MYLK2 = MYLK2 (Homo sapiens, UniProt Q9H1R3)
Outline: as §1

MAPKAPK5 = MAPKAPK5 (Homo sapiens, UniProt Q8IW41)
MAPKAPK5, sequence (Q8IW41 whole entry): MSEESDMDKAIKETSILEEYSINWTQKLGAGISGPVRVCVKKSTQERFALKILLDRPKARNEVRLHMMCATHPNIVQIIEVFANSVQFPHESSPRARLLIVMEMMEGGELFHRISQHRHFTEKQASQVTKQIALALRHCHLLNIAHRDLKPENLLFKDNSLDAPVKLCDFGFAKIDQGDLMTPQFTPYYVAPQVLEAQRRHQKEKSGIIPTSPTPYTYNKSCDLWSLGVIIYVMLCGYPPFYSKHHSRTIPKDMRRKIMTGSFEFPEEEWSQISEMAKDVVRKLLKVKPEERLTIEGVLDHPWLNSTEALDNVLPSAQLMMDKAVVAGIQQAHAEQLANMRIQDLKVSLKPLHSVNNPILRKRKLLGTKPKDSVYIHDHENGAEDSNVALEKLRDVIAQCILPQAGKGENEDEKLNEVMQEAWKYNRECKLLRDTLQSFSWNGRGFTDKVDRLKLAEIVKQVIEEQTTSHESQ
Outline: as §1

MEK5 = molecular target: T6, MEK5 (Homo sapiens, UniProt Q13163)
T6 construct: gene MAP2K5
T6 sequence (Q13163 whole entry): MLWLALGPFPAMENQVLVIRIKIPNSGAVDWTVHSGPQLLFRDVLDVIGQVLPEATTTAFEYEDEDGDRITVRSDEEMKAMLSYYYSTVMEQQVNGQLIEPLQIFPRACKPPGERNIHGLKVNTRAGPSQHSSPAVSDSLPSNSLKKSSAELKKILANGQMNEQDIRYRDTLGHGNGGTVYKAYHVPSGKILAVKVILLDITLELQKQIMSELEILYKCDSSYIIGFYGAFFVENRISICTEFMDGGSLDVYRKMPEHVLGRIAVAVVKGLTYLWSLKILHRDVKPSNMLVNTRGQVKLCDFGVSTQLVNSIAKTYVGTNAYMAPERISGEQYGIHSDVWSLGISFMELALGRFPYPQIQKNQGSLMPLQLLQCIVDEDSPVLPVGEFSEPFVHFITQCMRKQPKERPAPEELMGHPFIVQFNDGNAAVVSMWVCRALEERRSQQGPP
Outline: as §1

CLK4 = CLK4 (Homo sapiens, UniProt Q9HAZ1)
Outline: as §1

MEK1 = molecular target: T7, MEK1 (Homo sapiens, UniProt Q02750)
T7 construct: gene MAP2K1
T7 sequence (Q02750 whole entry): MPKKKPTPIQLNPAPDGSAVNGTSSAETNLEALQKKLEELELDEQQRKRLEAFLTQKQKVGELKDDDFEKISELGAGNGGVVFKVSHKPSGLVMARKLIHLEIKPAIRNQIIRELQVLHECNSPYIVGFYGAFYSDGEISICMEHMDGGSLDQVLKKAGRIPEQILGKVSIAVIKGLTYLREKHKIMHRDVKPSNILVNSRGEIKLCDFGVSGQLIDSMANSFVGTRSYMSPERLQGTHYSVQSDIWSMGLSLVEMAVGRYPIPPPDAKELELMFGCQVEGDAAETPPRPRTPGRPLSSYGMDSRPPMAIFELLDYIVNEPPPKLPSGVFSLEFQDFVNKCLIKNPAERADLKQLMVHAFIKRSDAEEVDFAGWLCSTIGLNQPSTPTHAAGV
Outline: as §1

ERK5 = molecular target: T8, ERK5 (Homo sapiens, UniProt Q13164)
T8 construct: gene MAPK7
Outline: as §1

CASK, sequence (O14936 whole entry): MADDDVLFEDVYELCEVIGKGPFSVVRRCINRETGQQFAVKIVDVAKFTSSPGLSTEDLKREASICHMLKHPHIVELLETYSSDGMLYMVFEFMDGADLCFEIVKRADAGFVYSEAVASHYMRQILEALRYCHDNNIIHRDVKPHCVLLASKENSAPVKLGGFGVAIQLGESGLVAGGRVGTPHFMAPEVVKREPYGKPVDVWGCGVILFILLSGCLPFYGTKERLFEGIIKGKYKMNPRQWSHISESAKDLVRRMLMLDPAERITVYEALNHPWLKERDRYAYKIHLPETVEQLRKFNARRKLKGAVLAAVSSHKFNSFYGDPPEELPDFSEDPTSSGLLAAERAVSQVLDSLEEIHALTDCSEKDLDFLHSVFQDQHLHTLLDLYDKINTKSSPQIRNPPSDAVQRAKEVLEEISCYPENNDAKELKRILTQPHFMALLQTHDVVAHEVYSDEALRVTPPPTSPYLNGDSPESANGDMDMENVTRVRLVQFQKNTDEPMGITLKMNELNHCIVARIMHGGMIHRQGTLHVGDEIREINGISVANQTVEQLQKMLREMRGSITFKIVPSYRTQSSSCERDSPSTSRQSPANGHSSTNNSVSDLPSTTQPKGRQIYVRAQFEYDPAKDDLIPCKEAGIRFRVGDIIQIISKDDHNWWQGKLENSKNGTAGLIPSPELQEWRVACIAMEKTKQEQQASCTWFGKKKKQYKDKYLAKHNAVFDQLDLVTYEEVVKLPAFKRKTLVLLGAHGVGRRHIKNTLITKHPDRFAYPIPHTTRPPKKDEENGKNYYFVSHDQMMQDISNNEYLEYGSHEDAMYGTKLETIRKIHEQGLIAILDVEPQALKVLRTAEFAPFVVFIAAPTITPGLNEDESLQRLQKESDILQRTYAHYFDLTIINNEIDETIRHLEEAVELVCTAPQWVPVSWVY

SMILES: C=C(C)[C@H]1CC=C(C)C(=O)C1 [S-carvone]
- remaining binding at 100 µM (CASK): 83%
- remaining binding at 100 µM (RIPK5): 61%
- remaining binding at 100 µM (PLK2): 68%
- remaining binding at 100 µM (PIM3): 72%
- remaining binding at 100 µM (CAMK1B): 61%
- remaining binding at 100 µM (AURKC): 100%
- remaining binding at 100 µM (CDK11): 98%
- remaining binding at 100 µM (FLT3(D835V)): 77%
- remaining binding at 100 µM (MYLK): 51%
- remaining binding at 100 µM (EIF2AK1): 75%
- remaining binding at 100 µM (EGFR): 79%
- remaining binding at 100 µM (WEE2): 88%
- remaining binding at 100 µM (ULK1): 100%
- remaining binding at 100 µM [1]: 82%
- remaining binding at 100 µM (FGFR3(G697C)): 75%
- remaining binding at 100 µM (HPK1): 80%
- remaining binding at 100 µM (MYLK2): 100%
- remaining binding at 100 µM (MAPKAPK5): 87%
- remaining binding at 100 µM (MEK5): 74%
- remaining binding at 100 µM (CLK4): 91%
- remaining binding at 100 µM (MEK1): 71%
- remaining binding at 100 µM (ERK5): 93%
